Experiments:
[1] = molecular target: TNF-α converting enzyme (TACE) (Homo sapiens, UniProt P78536); assay: Test procedure for measuring TACE inhibition (fluorescent peptidyl substrate); type: biochemical; conditions: second table
[2] = tested on: THP-1 cells; assay: Human monocytic THP-1 cell differentiation assay for soluble proteins (THP soluble protein assay), LPS-stimulated, TNF-α ELISA; type: cell-based; conditions: Homo sapiens, THP-1; at 3 uM; percent change from vehicle positive control; read-out: TNFalpha at 3 uM) THP (percent change)
From the text: Mitogenic stimulation of THP-1 cells cause differentiation into macrophage like cells with concomitant secretion of tumor necrosis factor (TNF-a) and TNF receptor (TNF-R p75/80 and TNF-R p55/60) and Interleukin-8 (IL-8), among other proteins. In addition, non-stimulated THP-1 cells shed both the p75/80 and the p55/60 receptors over time. The release of membrane bound TNF-a and possibly TNF-R p75/80 and TNF-R p55/60, but not IL-8, is mediated by an enzyme called TNF-α converting enzyme or TACE.
THP-1 cells (from ATCC) are a human monocytic cell line which were obtained from the peripheral blood of a person with acute monocytic leukemia. They can be grown in culture and differentiated into macrophage like cells by stimulation with mitogens.
Each vial of cells are cultured for about two weeks prior to being used for an assay and then are used for only 4 to 6 weeks to screen compounds.
Cell exposure to DMSO was limited to 0.1 % final concentration. […] Compounds can be evaluated for their effect on basal (non-stimulated) shedding of the receptors by replacing the LPS with […] of THP-1 media. Plates are placed into an incubator set at 5% CO2 and at 37°C. After 4 hours of incubation, […] of tissue culture supernatant (TCS) is removed for use in an TNF-α ELISA. Following 24 hours of incubation, […] of TCS is removed and used for analysis in TNF-R p75/80, TNF-R p55/60 and IL-8 ELISAs.
In addition, at the 24 hours timepoint, and the cells for each treatment group are collected by resuspension in 500 µl/well of THP-1 media and transferred into a FACS tube. […] The samples are run on a Becton Dickinson FaxCaliber FLOW cytometry machine and the amount of dye taken up by each cell is measured in the high red wavelength (FL3). Only cells with compromised membranes (dead or dying) can take up PI. The percent of live cells is calculated by the number of cells not stained with PI, divided by the total number of cells in the sample. The viability values calculated for the drug treated groups were compared to the viability value calculated for the vehicle treated mitogen stimulated group ("vehicle positive control") to determine the "percent change from control". This "percent change from control" value is an indicator of drug toxicity.
The quantity of soluble TNF-α, TNF-R p75/80 and TNF-R p55/60 and IL-8 in the TCS of the THP-1 cell cultures are obtained with commercially available ELISAs from R&D Systems, by extrapolation from a standard curve generated with kit standards. The number of cells that either take up or exclude PI are measured by the FLOW cytometry machine and visualized by histograms using commercially available Cytologic software for each treatment group including all controls.
Biological variability in the magnitude of the response of THP-1 cell cultures requires that experiments be compared on the basis of percent change from "vehicle positive control" for each drug concentration. Percent change in each soluble protein evaluated from the "vehicle positive control" was calculated for each compound concentration with the following formula: % Change =(pg/ml (compound) - pg/ml (veh pos control))/(pg/ml (veh pos control) - pg/ml (veh neg control))x 100 [formula]
For the soluble protein (TNF-a, p75/80, p55/60, IL-8) studies under stimulated conditions, the mean pg/ml of duplicate wells were determined and the results expressed as percent change from "vehicle positive control". For the soluble protein (p75/80 and p55/60 receptors) studies under non-stimulated conditions, the mean pg/ml of duplicate wells were determined and the results expressed as percent change from […] utilizing the following formula: % Change =(pg/ml (compound neg control) - pg/ml (veh neg control))/(pg/ml (veh neg control))X 100 [formula]
IC50 values for each compound are calculated by non-linear regression analysis using customized software utilizing the JUMP statistical package.

[3] = molecular target: MMP-13 (Homo sapiens, UniProt P45452); assay: MMP-13 inhibition (thiopeptide or fluorescent peptide substrate); type: biochemical; conditions: read-out: MMP13; for inhibition at 10 µM: % @ 10µM per footnote a; for inhibition at 1 µM: % at 1 um (specified in cell)
From the text: Alternatively, a fluorescent peptide substrate is used.

[4] = molecular target: T1, MMP-1 (Homo sapiens, UniProt P03956); assay: MMP-1 inhibition (thiopeptide or fluorescent peptide substrate); conditions: read-out: MMP1
T1 sequence (P03956 100-469): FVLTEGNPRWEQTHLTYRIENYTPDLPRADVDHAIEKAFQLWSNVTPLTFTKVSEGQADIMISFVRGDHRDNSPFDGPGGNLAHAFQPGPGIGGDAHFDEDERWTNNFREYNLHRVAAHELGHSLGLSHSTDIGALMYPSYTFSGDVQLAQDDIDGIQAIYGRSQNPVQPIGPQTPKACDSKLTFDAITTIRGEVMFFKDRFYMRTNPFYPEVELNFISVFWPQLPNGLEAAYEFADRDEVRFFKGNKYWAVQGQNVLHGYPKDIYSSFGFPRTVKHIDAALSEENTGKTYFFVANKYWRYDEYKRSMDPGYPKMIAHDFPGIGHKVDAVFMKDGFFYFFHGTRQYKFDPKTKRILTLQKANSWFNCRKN

Chain of TNF-α converting enzyme (TACE) (P78536 215-824): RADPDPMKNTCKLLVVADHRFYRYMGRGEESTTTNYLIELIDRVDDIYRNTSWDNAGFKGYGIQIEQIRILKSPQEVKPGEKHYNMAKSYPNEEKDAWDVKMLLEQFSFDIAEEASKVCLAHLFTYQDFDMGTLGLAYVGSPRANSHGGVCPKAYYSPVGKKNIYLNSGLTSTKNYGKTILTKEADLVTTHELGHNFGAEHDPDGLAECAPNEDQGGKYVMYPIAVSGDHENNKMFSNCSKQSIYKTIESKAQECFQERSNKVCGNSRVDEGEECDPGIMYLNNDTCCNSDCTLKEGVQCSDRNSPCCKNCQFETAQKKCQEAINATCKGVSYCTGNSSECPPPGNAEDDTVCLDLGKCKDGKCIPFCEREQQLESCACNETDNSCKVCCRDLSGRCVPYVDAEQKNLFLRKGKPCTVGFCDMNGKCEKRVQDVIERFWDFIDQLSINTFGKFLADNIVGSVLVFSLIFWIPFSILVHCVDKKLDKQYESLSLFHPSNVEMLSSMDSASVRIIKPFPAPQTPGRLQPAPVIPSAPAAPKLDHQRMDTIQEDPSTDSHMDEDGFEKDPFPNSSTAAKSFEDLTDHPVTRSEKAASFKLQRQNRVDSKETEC

Compound	IC50 ([1]; IC50 (nM) per footnote a) [nM]	inhibition at 3 µM [2] [%]	inhibition at 10 µM [3] [%]	inhibition at 10 µM [4] [%]	inhibition at 1 µM [3] [%]	IC50 [1] [nM]
CC#CCOc1ccc(S(=O)(=O)C(C(=O)NO)C2CCN(C(=O)OC(C)(C)C)CC2)cc1 (stereo not shown) [Example 117, Tert-butyl-4-[1-{[4-(2-butynyloxy)phenyl]sulfonyl}-2-(hydroxyamino)-2-oxoethyl]-1-piperidine carboxylate]	190	50	52	22		
CC#CCOc1ccc(SC(C(=O)NO)c2ccc(Br)cc2)cc1 (stereo not shown) [Example 85, 2-(4-bromophenyl)-2-{[4-(2-butynyloxy)phenyl]sulfanyl}-N-hydroxyacetamide]	391	-10	30.5	6.8		
CC#CCOc1ccc(S(=O)(=O)C(C(=O)NO)C2CCN(C(=O)c3ccccc3)CC2)cc1 (stereo not shown) [Example 120, 2-(1-benzoyl-4-piperidinyl)-2-{[4-(2-butynyloxy)phenyl]sulfonyl}-N-hydroxyacetamide]	88.5	63		24	51	
CC#CCOc1ccc(SC(C(=O)NO)c2ccccc2OC)cc1 (stereo not shown) [Example 98, 2-(2-methoxyphenyl)-2-{[4-(2-butynyloxy)phenyl]sulfanyl}-N-hydroxyacetamide]	464	1	59	23		
CC#CCOc1ccc(S(=O)(=O)C(C(=O)NO)C2CCN(Cc3ccc(OC)cc3)CC2)cc1 (stereo not shown) [Example 119, 2-{[4-(2-butynyloxy)phenyl]sulfonyl}-N-hydroxy-2-[1-(4-methoxybenzyl)-4-piperidinyl] acetamide]	263	30	50	9		
CC#CCOc1ccc(S(=O)(=O)C(C(=O)NO)c2cccc3ccccc23)cc1 (stereo not shown) [Example 94, 2-{[4-(2-Butynyloxy)phenyl]sulfonyl}-N-hydroxy-2-(1-naphthyl)acetamide]	423	-11	34	8		
CC#CCOc1ccc(S(=O)(=O)C(C(=O)NO)c2ccc3ccccc3c2)cc1 (stereo not shown) [Example 116, 2-{[4-(2-butynyloxy)phenyl]sulfonyl}-2-(2-naphthyl)-N-hydroxyacetamide]	495	7		5.6	33.6	
CC#CCOc1ccc([S+]([O-])[C@H](C(=O)NO)c2ccc(Br)cc2)cc1 (single isomer, unassigned) [Example 86]	60	-2	51	24		
CC#CCOc1ccc([S+]([O-])C(C(=O)NO)c2ccc3ccccc3c2)cc1 (stereo not shown) [Example 115, 2-{[4-(2-butynyloxy)phenyl]sulfinyl}-2-(2-naphthyl)-N-hydroxyacetamide]	141	11		4.11	45.1	
CC#CCOc1ccc(S(=O)(=O)C(C(=O)NO)C2CCNCC2)cc1 (stereo not shown) [Example 118, 2-{[4-(2-butynyloxy)phenyl]sulfonyl}-N-hydroxy-2-(4-piperidinyl) acetamide]	299	24	69.5	23.8		
CC#CCOc1ccc([S+]([O-])C(C(=O)NO)c2ccccc2OC)cc1 (stereo not shown) [Example 99, 2-(2-methoxyphenyl)-2-{[4-(2-butynyloxy)phenyl]sulfinyl}-N-hydroxyacetamide]		1	33.6	0		1100
CC#CCOc1ccc(S(=O)(=O)C(C(=O)NO)c2ccc(OCC)cc2)cc1 (stereo not shown) [Example 102]	82	10	71	26		
CC#CCOc1ccc(SC(C(=O)NO)c2ccc(-c3cccs3)cc2)cc1 (stereo not shown) [Example 89, 2{[4-(2-butynyloxy)phenyl]sulfanyl}-N-hydroxy-2-[4-(2-thienyl)phenyl]acetamide]	617	2	5	0		

Reference: patent EP1147080B1 (Wyeth Holdings Corporation, priority 1999, dated 2000)
